Experimental findings from patent US20190002452A1 (GUANGZHOU HENOVCOM BIOSCIENCE CO., LTD, priority 2016, published 2019) are described below.

The target of this assay is T1, human farnesol receptor protein hFXR (Homo sapiens, UniProt Q96RI1).
T1 construct: hexahistidine (His6)
T1 sequence (Q96RI1 1-486): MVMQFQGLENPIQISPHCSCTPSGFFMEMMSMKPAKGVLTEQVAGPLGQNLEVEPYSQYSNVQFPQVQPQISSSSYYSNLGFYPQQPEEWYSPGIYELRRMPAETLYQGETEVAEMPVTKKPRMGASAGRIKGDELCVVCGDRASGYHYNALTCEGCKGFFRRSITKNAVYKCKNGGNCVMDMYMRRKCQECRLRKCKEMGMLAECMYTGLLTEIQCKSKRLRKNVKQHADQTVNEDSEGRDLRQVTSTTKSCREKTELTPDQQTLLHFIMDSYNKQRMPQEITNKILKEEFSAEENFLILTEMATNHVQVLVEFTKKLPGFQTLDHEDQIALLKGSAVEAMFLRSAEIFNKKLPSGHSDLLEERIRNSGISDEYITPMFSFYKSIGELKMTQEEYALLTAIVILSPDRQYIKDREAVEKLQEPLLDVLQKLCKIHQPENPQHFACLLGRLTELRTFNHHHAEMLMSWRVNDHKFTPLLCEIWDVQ
The assay can be described thus: AlphaScreen assay of FXR agonist activity in vitro: effect on binding between human farnesol receptor protein and its coactivator (SRC1-2). Format: biochemical. The settings on record: hFXR 100 nM, peptide bSRC1-2 50 nM, 2 hr incubation at room temperature. As to the method:
FXR agonist activity in vitro for the chemicals prepared in the above examples is measured.
AlphaScreen-based assays are performed with a hexahistidine detection kit manufactured by Perkins-Elmer, for measuring the effect of chemical compounds on the binding between human farnesol receptor protein and its coactivator (SRC1-2), the method is shown as follows:
1) Preparing a mixture comprising human farnesol receptor protein hFXR (100 nM, 15 μL/well), peptide bSRC1-2 (50 nM, 15 μL/well), 10× AlphaScreen buffer solution (15 μL/well and DI water (60 μL/well), and then transferring 105 μL/well of the mixture to a 96-well plate; 2) Diluting the chemicals prepared in the above examples by twice gradient 12×, with 15 μL/well; 3) Adding donor beads and acceptor beads, 30 μL/well in total; (attention: the beads are light-sensitive) 4) Incubating in dark at room temperature for 2 hr; 5) Transferring 40 μL/well of the mixture to a 384-well plate with 3 replicates, and then centrifuging at 1000 rpm for 1 min, to make liquid mixed well underneath the wells. (attention: photopathic operation); 6) In a dark room, reading the plate (by Homogeneous luminescent immunoassay system) to obtain EC50 with a GraphPad Prism5 software.
Regarding “2-(5-((5-cyclopropyl-3-(2,6-dichlorophenyl)isoxazol-4-yl)methoxy)hexahydrocyclopenta[c]pyrrol-2(1H)-yl) benzo[d]thiazole-6-carboxylic Acid [Example 27]”, the 50% effective concentration (EC50) was over 1000 nM.
Consider `O=C(O)c1cccc(C(=O)N2CCC3(CC2)CC(OCc2c(-c4c(Cl)cccc4Cl)noc2C2CC2)C3)c1` [Example 1], for which the EC50 is over 1000 nM.
In turn, `O=C(O)c1ccc2nc(N3CCC4(CC3)CC(OCc3c(-c5c(Cl)cccc5Cl)noc3C3CC3)C4)sc2c1` [Example 2, 2-(2((5-cyclopropyl-3-(2,6-dichlorophenyl)isoxazol-4-yl)methoxy)-7-azaspiro[3.5]nonan-7-yl)benzo[d]thiazole-6-carboxylic Acid] registered a concentration giving a half-maximal response (EC50) of under 100 nM.
As for `O=C(O)c1cccc(C(=O)N2CC3(CC(OCc4c(-c5c(Cl)cccc5Cl)noc4C4CC4)C3)C2)c1` [Example 3, 3-(6((5-cyclopropyl-3(2,6-dichlorophenyl)isoxazol-4-yl)methoxy)-2-azaspiro[3.3]heptan-2-carbonyl)benzoic Acid], the figure is over 1000 nM; as for `O=C(O)c1ccc2nc(N3CC4(CC(OCc5c(-c6c(Cl)cccc6Cl)noc5C5CC5)C4)C3)sc2c1` [Example 4, 2-(6((5-cyclopropyl-3-(2,6-dichlorophenyl)isoxazol-4-yl)methoxy)2-azaspiro[3.3]heptan-2-yl)benzo[d]thiazole-6-carboxylic Acid], under 100 nM.
For `O=C(O)c1cccc(C(=O)N2CC3CCC(C2)C3OCc2c(-c3c(Cl)cccc3Cl)noc2C2CC2)c1` (centres unmarked) [Example 5, 3-(8((5-cyclopropyl-3-(2,6-dichlorophenyl)isoxazol-4-yl)methoxy)3-azabicyclo[3.2.1]octan-3-carbonyl)benzoic Acid] the value was over 1000 nM.
In turn, `O=C(O)c1ccc2nc(N3CC4CCC(C3)C4OCc3c(-c4c(Cl)cccc4Cl)noc3C3CC3)sc2c1` (centres unmarked) [Example 6, 2-(8-((5-cyclopropyl-3-(2,6-dichlorophenyl)isoxazol-4-yl)methoxy)-3-azabicyclo[3.2.1]octan-3-yl)benzo[d]thiazole-6-carboxylic Acid] yielded an EC50 of 100 to 1000 nM.
For `O=C(O)c1cccc(C(=O)N2CCC3(CC(OCc4c(-c5c(Cl)cccc5Cl)noc4C4CC4)C3)C2)c1` (centres unmarked) [Example 7, 3-(2-((5-cyclopropyl-3-(2,6-dichlorophenyl)isoxazol-4-yl)methoxy)-6-azaspiro[3.4]octan-6-carbonyl)benzoic Acid] the value was under 100 nM; for `O=C(O)c1ccc2nc(N3CCC4(CC(OCc5c(-c6c(Cl)cccc6Cl)noc5C5CC5)C4)C3)sc2c1` (centres unmarked) [Example 8, 2-(2-((5-cyclopropyl-3-(2,6-dichlorophenyl)isoxazol-4-yl)methoxy)-6-azaspiro[3.4]octan-6-yl)benzo[d]thiazole-6-carboxylic Acid], under 100 nM.
Take `O=C(O)c1cccc(N2CC3(CC(OCc4c(-c5c(Cl)cccc5Cl)noc4C4CC4)C3)C2)c1` [Example 9, 3-(6-((5-cyclopropyl-3-(2,6-dichlorophenyl)isoxazol-4-yl)methoxy)-2-azaspiro[3.3]heptan-2-yl)benzoic Acid]: the EC50 fell in the range of 100 to 1000 nM.
As for `O=C(O)c1cccc(N2CCC3(CC(OCc4c(-c5c(Cl)cccc5Cl)noc4C4CC4)C3)C2)c1` (centres unmarked) [Example 10, 3-(2-((5-cyclopropyl-3-(2,6-dichlorophenyl)isoxazol-4-yl)methoxy)-6-azaspiro[3.4]octan-6-yl)benzoic Acid], the figure is 100 to 1000 nM.
As for `O=C(O)c1ccc2nc(N3CC4CCCCC(C3)C4OCc3c(-c4c(Cl)cccc4Cl)noc3C3CC3)sc2c1` (centres unmarked) [Example 11, 2-(10-((5-cyclopropyl-3-(2,6-dichlorophenyl)isoxazol-4-yl)methoxy)-8-azabicyclo[4.3.1]decan-8-yl)benzo[d]thiazole-6-carboxylic Acid], the figure is under 100 nM; as for `COc1cc(C(=O)O)cc2sc(N3CCC4(CC(OCc5c(-c6c(Cl)cccc6Cl)noc5C5CC5)C4)C3)nc12` (centres unmarked) [Example 12, 2-(2-((5-cyclopropyl-3-(2,6-dichlorophenyl)isoxazol-4-yl)methoxy)-6-azaspiro[3.4]octan-6-yl)-4-methoxybenzo[d]thiazole-6-carboxylic Acid], 100 to 1000 nM; as for `O=C(O)c1cc(F)c2nc(N3CCC4(CC(OCc5c(-c6c(Cl)cccc6Cl)noc5C5CC5)C4)C3)sc2c1` (centres unmarked) [Example 13, 2-(2-((5-cyclopropyl-3-(2,6-dichlorophenyl)isoxazol-4-yl)methoxy)-6-azaspiro[3.4]octan-6-yl)-4-flurobenzo[d]thiazole-6-carboxylic Acid], 100 to 1000 nM.
For `O=C(O)c1ccc2nc(N3CCC4(CC(OCc5c(-c6c(Cl)cccc6Cl)noc5C5CC5)C4)C3)oc2c1` (centres unmarked) [Example 14, 2-(2-((5-cyclopropyl-3-(2,6-dichlorophenyl)isoxazol-4-yl)methoxy)-6-azaspiro[3.4]octan-6-yl) benzo[d]oxazole-6-carboxylic Acid] the value was under 100 nM; for `C[C@@H]1CC2(CC(OCc3c(-c4c(Cl)cccc4Cl)noc3C3CC3)C2)CN1c1nc2ccc(C(=O)O)cc2s1` (stereo partly drawn) [Example 15, (R)-2-(2-((5-cyclopropyl-3-(2,6-dichlorophenyl)isoxazol-4-yl)methoxy)-7-methyl-6-azaspiro[3.4]octan-6-yl) benzo[d]thiazole-6-carboxylic Acid], 100 to 1000 nM.
In turn, `O=C(O)c1ccc2nc(N3CC4(CC(OCc5c(-c6c(Cl)cccc6Cl)noc5C5CC5)C4)C[C@H]3CF)sc2c1` (stereo partly drawn) [Example 16, (S)-2-(2-((5-5-cyclopropyl-3-(2,6-dichlorophenyl)isoxazol-4-yl)methoxy)-7-(fluromethyl)-6-azaspiro[3.4]octan-6-yl) benzo[d]thiazole-6-carboxylic Acid] yielded an EC50 of 100 to 1000 nM.
In turn, `C[C@@H]1CC2(CC(OCc3c(-c4c(Cl)cccc4Cl)noc3C3CC3)C2)CN1c1nc2c(F)cc(C(=O)O)cc2s1` (some centres unmarked) [Example 17] registered an EC50 of 100 to 1000 nM.
`COc1cc(C(=O)O)cc2sc(N3CC4(CC(OCc5c(-c6c(Cl)cccc6Cl)noc5C5CC5)C4)C[C@H]3C)nc12` (some centres unmarked) [Example 18] gave an EC50 of 100 to 1000 nM.
For `O=C(O)c1cc(F)c2nc(N3CC4(CC(OCc5c(-c6c(Cl)cccc6Cl)noc5C5CC5)C4)C[C@H]3CF)sc2c1` (stereo partly drawn) [Example 19, (S)-2-(2-((5-cyclopropyl-3-(2,6-dichlorophenyl)isoxazol-4-yl)methoxy)-7-(fluromethyl)-6-azaspiro[3.4]octan-6-yl)-4-flurobenzo[d]thiazole-6-carboxylic Acid] the value was 100 to 1000 nM.
As for `O=C(O)c1ccc2nc(N3CC4(CC(OCc5c(-c6c(Cl)cccc6Cl)noc5C5CC5)C4)C[C@H]3CF)oc2c1` (stereo partly drawn) [Example 21, (S)-2-(2-((5-cyclopropyl-3-(2,6-dichlorophenyl)isoxazol-4-yl)methoxy)-7-(fluromethyl)-6-azaspiro[3.4]octan-6-yl) benzo[d]oxazole-6-carboxylic Acid], the figure is 100 to 1000 nM; as for `O=C(O)c1ccc2nc(N3Cc4ccc(OCc5c(-c6c(Cl)cccc6Cl)noc5C5CC5)cc4C3)sc2c1` [Example 22, 2-(5-((5-cyclopropyl-3-(2,6-dichlorophenyl)isoxazol-4-yl)methoxy)isoindolin-2-yl) benzo[d]thiazole-6-carboxylic Acid], under 100 nM.
As for `O=C(O)c1ccc2nc(N3CCc4cc(OCc5c(-c6c(Cl)cccc6Cl)noc5C5CC5)ccc4C3)sc2c1` [Example 23, 2-(6-((5-cyclopropyl-3-(2,6-dichlorophenyl)isoxazol-4-yl)methoxy)-3,4-dihydroisoquinolin-2 (1H)-yl) benzo[d]thiazole-6-carboxylic Acid], the figure is under 100 nM; as for `O=C(O)c1ccc2nc(N3CCc4ccc(OCc5c(-c6c(Cl)cccc6Cl)noc5C5CC5)cc4C3)sc2c1` [Example 24, 2-(7-((5-cyclopropyl-3-(2,6-dichlorophenyl)isoxazol-4-yl)methoxy)-3,4-dihydroisoquinolin-2(1H)-yl) benzo[d]thiazole-6-carboxylic Acid], 100 to 1000 nM; as for `O=C(O)c1ccc2nc(N3CC4CCC(OCc5c(-c6c(Cl)cccc6Cl)noc5C5CC5)CC4C3)sc2c1` (centres unmarked) [Example 25, 2-(5-((5-cyclopropyl-3-(2,6-dichlorophenyl)isoxazol-4-yl)methoxy)hexahydro-1H-isoindol-2(3H)-yl) benzo[d]thiazole-6-carboxylic Acid], 100 to 1000 nM.
Compound `O=C(O)c1ccc2nc(N3CC4CC(OCc5c(-c6c(Cl)cccc6Cl)noc5C5CC5)CC4C3)sc2c1` (centres unmarked) [Example 26, 2-(5-((5-cyclopropyl-3-(2,6-dichlorophenyl)isoxazol-4-yl)methoxy)hexahydrocyclopenta[c]pyrrol-2(1H)-yl) benzo[d]thiazole-6-carboxylic Acid] returned an EC50 of under 100 nM.
